According to PMC7615792 (ACS catalysis, 2023):

Assays:
AtzB_Hom_Hal = target: T1, AtzB_Hom_Hal (Mangrovimicrobium sediminis, UniProt A0A4Z0M5D5); assay: direct photometric steady-state assay, spectrophotometer; assay type: biochemical; conditions: 50 mM potassium phosphate pH 7.5, 25 °C
T1 sequence (A0A4Z0M5D5 1-465): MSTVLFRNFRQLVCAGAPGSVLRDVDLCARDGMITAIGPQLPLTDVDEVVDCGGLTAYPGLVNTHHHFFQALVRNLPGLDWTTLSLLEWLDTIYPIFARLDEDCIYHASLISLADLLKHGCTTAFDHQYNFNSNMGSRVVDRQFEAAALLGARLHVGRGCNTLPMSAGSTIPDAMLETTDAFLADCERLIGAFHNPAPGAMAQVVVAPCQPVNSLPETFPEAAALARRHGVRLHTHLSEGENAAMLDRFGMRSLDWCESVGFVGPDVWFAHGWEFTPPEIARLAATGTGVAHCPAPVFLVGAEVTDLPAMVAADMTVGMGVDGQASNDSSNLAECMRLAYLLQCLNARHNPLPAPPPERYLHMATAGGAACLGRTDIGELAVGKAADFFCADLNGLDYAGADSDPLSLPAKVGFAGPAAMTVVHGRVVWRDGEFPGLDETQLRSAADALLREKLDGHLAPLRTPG

AtzB = target: T2, AtzB (Pseudomonas sp. ADP, UniProt P95442); assay: as above; assay type: biochemical; conditions: 50 mM potassium phosphate pH 7.5, 25 °C
T2 sequence (P95442 1-481): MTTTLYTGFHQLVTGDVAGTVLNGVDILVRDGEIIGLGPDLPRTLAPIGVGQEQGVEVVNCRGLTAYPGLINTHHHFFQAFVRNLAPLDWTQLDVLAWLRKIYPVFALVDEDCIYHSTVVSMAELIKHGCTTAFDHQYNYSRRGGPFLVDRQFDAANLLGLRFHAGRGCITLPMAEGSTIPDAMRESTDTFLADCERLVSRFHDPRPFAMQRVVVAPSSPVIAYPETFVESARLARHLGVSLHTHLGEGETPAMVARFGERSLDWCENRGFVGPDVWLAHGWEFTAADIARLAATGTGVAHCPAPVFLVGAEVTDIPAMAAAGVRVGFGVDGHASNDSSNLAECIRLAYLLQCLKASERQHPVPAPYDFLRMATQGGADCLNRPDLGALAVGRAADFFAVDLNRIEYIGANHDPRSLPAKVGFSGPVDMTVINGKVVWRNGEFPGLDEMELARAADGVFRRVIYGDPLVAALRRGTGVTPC

CCNc1nc(O)nc(NC(C)C)n1 [II, hydroxyatrazine]
KM (AtzB_Hom_Hal): promiscuous hydroxyatrazine hydrolase activities of AtzB_Hom_Hal and AtzB_Hom_Pleo

Nc1nc2[nH]cnc2c(=O)[nH]1 [guanine]
kcat/KM (AtzB): represents an increase of about three orders of magnitude compared to AtzB
